This is an account of results in patent US10501479B2, “Benzenesulfonyl-asymmetric ureas and medical uses thereof” (HELSINN HEALTHCARE SA, priority 2016, dated 2019).

The term IC50 denotes the concentration that inhibits the measured activity by half.

Data set [1] is described as follows: Metabolic stability in mouse liver microsomes. It counts as in vitro ADME. The procedure, abridged:
(§1)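 Compound incubated with human, dog, rat or mouse liver microsomes in 100 mM potassium phosphate, pH 7.4, at 37 °C. Reaction started with an NADPH regenerating system. Samples quenched at 0, 10, 30 and 90 min, and remaining compound measured by LC-MS/MS.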
In general terms: Liver microsomes are a subcellular fraction often used to study metabolism.

Data set [2] has as its target T1, recombinant human ghrelin receptor (HEK293/GRLN) (Homo sapiens, UniProt Q92847).
T1 construct: expressed in transfected cells
Put plainly: Ghrelin inverse agonist potency (EC50) with IP-1 (IP-One HTRF) assay. The following applies: IP-1 assay, HEK293/GRLN; read-out: Activity EC50 (ghrelin inverse agonist potency). It counts as cell-based. The procedure, abridged:
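HEK293/GRLN cells were seeded 18-22 hours before the test, then exposed to compound in stimulation buffer for 1 hour at 37° C, 5% CO2. IP-1 was detected by IP-One HTRF (IP1-d2 plus Tb-cryptate, 1 hour RT), reading 620 and 665 nm; the inverse agonist EC50 was derived from this.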

Data set [3] can be described thus: Metabolic stability in human liver microsomes. Format: in vitro ADME. The procedure, abridged:
as §1

The target of data set [4] is T2, GHSR-1a (HEK293/GHSR1a cell line) (Homo sapiens, UniProt Q92847).
T2 construct: expressed in transfected cells; host or cells: HEK293/GHSR1a cell line
T2 sequence (Q92847 whole entry): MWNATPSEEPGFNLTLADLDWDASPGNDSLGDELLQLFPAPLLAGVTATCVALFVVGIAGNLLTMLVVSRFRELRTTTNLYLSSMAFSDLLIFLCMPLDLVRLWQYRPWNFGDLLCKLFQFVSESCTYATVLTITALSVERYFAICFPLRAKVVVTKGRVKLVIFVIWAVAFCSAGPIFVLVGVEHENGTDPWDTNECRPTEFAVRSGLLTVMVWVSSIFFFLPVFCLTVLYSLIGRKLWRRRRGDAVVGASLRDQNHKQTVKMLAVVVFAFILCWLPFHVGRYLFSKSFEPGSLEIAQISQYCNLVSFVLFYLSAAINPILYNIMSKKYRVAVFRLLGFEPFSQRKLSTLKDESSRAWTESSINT
Briefly: Ghrelin antagonist potency (IC50) with calcium FLIPR assay, ghrelin 10 nM. Format: cell-based. The following applies: HEK293/GHSR1a, ghrelin 10 nM, read-out: Activity IC50 (ghrelin antagonist potency). An outline of the steps: (§2)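 HEK293/GHSR1a cells, seeded 24 hr ahead and loaded with calcium dye 30-60 min, were read by FLIPR fluorescence for 2 min after addition at t=20 sec. Agonism: compound alone, EC50 from dose-response. Antagonism: compound plus 10 nM ghrelin, IC50 from reduction of ghrelin response.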

Data set [5] has as its target T2, GHSR-1a (HEK293/GHSR1a cell line). Put plainly: Ghrelin agonist potency (EC50) with calcium FLIPR assay. The following applies: HEK293/GHSR1a, read-out: Activity EC50/EMax: EC50 (ghrelin agonist potency). Format: cell-based. The procedure, abridged:
as §2

Some results are limits rather than exact numbers.

T1 sequence (Q92847 whole entry): as above

On to `CC(NC(=O)Nc1ccc(S(=O)(=O)Nc2ccc3c(c2)CN(C)C3)cc1)c1ccccc1` (stereo not drawn) [H1308, N-(2-methylisoindolin-5-yl)-4-(3-(1-phenylethyl)ureido) benzenesulfonamide], for which the “Metabolic Stability Study M = mouse” value in data set [1] was determined as 38.5 µL/min/mg. Besides, the figures for the EC50 in data set [2] and in data set [5] were 31.2 nM and greater than 30000 nM, respectively. In addition, in data set [3], the “Metabolic Stability Study H = human” value was 49.4 µL/min/mg. In data set [4], the half-inhibitory concentration (IC50) was 23.5 nM.
Turning to `C[C@H](NC(=O)Nc1ccc(S(=O)(=O)Cc2ccc3c(c2)CN(C)CC3)cc1)c1ccccc1` [H1311, (S)-1-(4-(((2-methyl-1,2,3,4-tetrahydroisoquinolin-7-yl)methyl)sulfonyl)phenyl)-3-(1-phenylethyl)urea], in data set [1], the “Metabolic Stability Study M = mouse” value amounted to 123.8 µL/min/mg. The EC50 in data set [2] is 84.6 nM; in data set [5], greater than 30000 nM. In data set [3], the “Metabolic Stability Study H = human” value was 95.9 µL/min/mg. In data set [4], the half-inhibitory concentration (IC50) came out at 108 nM.
The corresponding values for `CN1Cc2ccc(CS(=O)(=O)c3ccc(NC(=O)NC4CCCc5ccccc54)cc3)cc2C1` (stereo not drawn) [H1312, 1-(4-(((2-methylisoindolin-5-yl)methyl)sulfonyl)phenyl)-3-(1,2,3,4-tetrahydronaphthalen-1-yl)urea] are 117.5 µL/min/mg, 85.8 nM, greater than 30000 nM, 93.5 µL/min/mg and 69 nM.
Take `CC(NC(=O)Nc1ccc(S(=O)(=O)Cc2ccc3c(c2)CN(C)C3)cc1F)c1ccccc1` (stereo not drawn) [H1317, 1-(2-fluoro-4-(((2-methylisoindolin-5-yl)methyl)sulfonyl)phenyl)-3-(1-phenylethyl)urea]: the “Metabolic Stability Study M = mouse” value in data set [1] was found to be 102.8 µL/min/mg. Besides, the EC50 in data set [2] was 18.2 nM; in data set [5], greater than 30000 nM. Besides, the “Metabolic Stability Study H = human” value in data set [3] was 96.7 µL/min/mg. In data set [4], the concentration for half-maximal inhibition (IC50) stood at 48.4 nM.
On the same counts, the results for `CC(NC(=O)Nc1ccc(S(=O)(=O)Cc2ccc3c(c2)CN(C2COC2)C3)cc1)c1ccccc1` (stereo not drawn) [H1319, 1-(4-(((2-(oxetan-3-yl)isoindolin-5-yl)methyl)sulfonyl)phenyl)-3-(1-phenylethyl)urea] are greater than 500 µL/min/mg, 12.5 nM, greater than 30000 nM, 195.6 µL/min/mg and 41 nM.
On the same counts, the results for `CC(NC(=O)Nc1ccc(S(=O)(=O)Cc2cc3c(s2)CN(C)C3)cc1)c1ccccc1` (stereo not drawn) [H1321, 1-(4-(((5-methyl-5,6-dihydro-4H-thieno[2,3-c]pyrrol-2-yl)methyl)sulfonyl)phenyl)-3-(1-phenylethyl)urea] are 81.9 µL/min/mg, 23.2 nM, greater than 30000 nM, 85.3 µL/min/mg and 47.5 nM.
On to `C[C@H](NC(=O)Nc1ccc(S(=O)(=O)Cc2ccc3c(c2)CCN(C)CC3)cc1)c1ccccc1` [H1322, (S)-1-(4-(((3-methyl-2,3,4,5-tetrahydro-1H-benzo [d]azepin-7-yl)methyl)sulfonyl)phenyl)-3-(1-phenylethyl)urea], for which the “Metabolic Stability Study M = mouse” value in data set [1] came to 171.1 µL/min/mg. Further, the EC50 is 81.5 nM in data set [2] and greater than 30000 nM in data set [5]. The “Metabolic Stability Study H = human” value in data set [3] worked out at 129 µL/min/mg. The half-inhibitory concentration (IC50) in data set [4] worked out at 112 nM.
For the compound `CC(NC(=O)Nc1ccc(S(=O)(=O)Cc2cnc3c(c2)CN(C)C3)cc1)c1ccccc1` (stereo not drawn) [H1323, 1-(4-(((6-methyl-6,7-dihydro-5H-pyrrolo[3,4-b]pyridin-3-yl)methyl)sulfonyl)phenyl)-3-(1-phenylethyl)urea], in data set [1], the “Metabolic Stability Study M = mouse” value came to 58.5 µL/min/mg. Moreover, the figures for the EC50 in data set [2] and in data set [5] were 102 nM and greater than 30000 nM, respectively. Besides, the “Metabolic Stability Study H = human” value in data set [3] worked out at 84.1 µL/min/mg. Moreover, the IC50 in data set [4] was 243 nM.
On the same counts, the results for `COc1cccc(C(C)NC(=O)Nc2ccc(S(=O)(=O)Cc3ccc4c(c3)CN(C)C4)cc2)c1` (stereo not drawn) [H1326, 1-(1-(3-methoxyphenyl)ethyl)-3-(4-(((2-methylisoindolin-5-yl)methyl)sulfonyl)phenyl)urea] are 60.5 µL/min/mg, 6.9 nM, greater than 30000 nM, 129.5 µL/min/mg and 9.8 nM.
The corresponding values for `COc1cccc(C(C)NC(=O)Nc2ccc(S(=O)(=O)Cc3ccc4c(c3)CN(C)C4)cc2)c1` (stereo not drawn) [H1327, 1-(1-(3-methoxyphenyl)ethyl)-3-(4-(((2-methylisoindolin-5-yl)methyl)sulfonyl)phenyl)urea] are 144.8 µL/min/mg, 5.5 nM, greater than 30000 nM, 165.3 µL/min/mg and 5.6 nM.
On the same counts, the results for `CC(NC(=O)Nc1ccc(S(=O)(=O)Nc2ccc3c(c2)CCN(C)C3)cc1)c1ccccc1Cl` (stereo not drawn) [H1334, 4-(3-(1-(2-chlorophenyl)ethyl)ureido)-N-(2-methyl-1,2,3,4-tetrahydroisoquinolin-6-yl)benzenesulfonamide] are 97.9 µL/min/mg, 8.2 nM, greater than 30000 nM, 109.8 µL/min/mg and 9.18 nM.
For the compound `C[C@@H](NC(=O)Nc1ccc(S(=O)(=O)Nc2ccc3c(c2)CN(C)C3)cc1)c1ccccc1` [H1337, (R)-N-(2-methylisoindolin-5-yl)-4-(3-(1-phenylethyl)ureido) benzenesulfonamide], the “Metabolic Stability Study M = mouse” value in data set [1] was found to be 39.2 µL/min/mg. Further, the EC50 in data set [2] is 10.5 nM; in data set [5] it was greater than 30000 nM. In data set [3], the “Metabolic Stability Study H = human” value is 58.6 µL/min/mg. Moreover, the IC50 in data set [4] was 24.1 nM.
On the same counts, the results for `COCCN1Cc2ccc(CS(=O)(=O)c3ccc(NC(=O)NC(C)c4ccccc4)cc3)cc2C1` (stereo not drawn) [H1338, 1-(4-(((2-(2-methoxyethyl)isoindolin-5-yl)methyl)sulfonyl)phenyl)-3-(1-phenylethyl)urea] are 242.1 µL/min/mg, 6.5 nM, greater than 30000 nM, 106.9 µL/min/mg and 7.6 nM.
Consider `CC(NC(=O)Nc1ccc(S(=O)(=O)Cc2ccc3c(c2)CN(C2CCOC2)C3)cc1)c1ccccc1.O=C(O)C(F)(F)F` (stereo not drawn) [H1340, 1-(1-phenylethyl)-3-(4-(((2-(tetrahydrofuran-3-yl)isoindolin-5-yl)methyl)sulfonyl)phenyl)urea], for which the “Metabolic Stability Study M = mouse” value in data set [1] is greater than 500 µL/min/mg. Besides, the values for the EC50 in data set [2] and in data set [5] were 3.3 nM and greater than 30000 nM, respectively. Further, the “Metabolic Stability Study H = human” value in data set [3] was 282.4 µL/min/mg. In addition, the half-maximal inhibitory concentration (IC50) in data set [4] amounted to 4.7 nM.
The corresponding values for `CC(NC(=O)Nc1ccc(S(=O)(=O)Cc2ccc3c(c2)CCN(C)C3)cc1)c1ccccc1F` (stereo not drawn) [H1342, 1-(1-(2-fluorophenyl)ethyl)-3-(4-(((2-methyl-1,2,3,4-tetrahydroisoquinolin-6-yl)methyl)sulfonyl)phenyl)urea] are 118.4 µL/min/mg, 7.9 nM, greater than 30000 nM, 80.1 µL/min/mg and 17.4 nM.
For the compound `C[C@@H](NC(=O)Nc1ccc(S(=O)(=O)Cc2ccc3c(c2)CCN(C)C3)cc1)c1cccc(Cl)c1Cl` [H1343, (R)-1-(1-(2,3-dichlorophenyl)ethyl)-3-(4-(((2-methyl-1,2,3,4-tetrahydroisoquinolin-6-yl)methyl)sulfonyl)phenyl)urea], the “Metabolic Stability Study M = mouse” value in data set [1] was found to be 252.4 µL/min/mg. The EC50 in data set [2] is 2.1 nM; in data set [5], greater than 30000 nM. For the same compound, the “Metabolic Stability Study H = human” value in data set [3] was 71.9 µL/min/mg. In addition, the IC50 in data set [4] came out at 5.2 nM.
Regarding `CC(NC(=O)Nc1ccc(S(=O)(=O)Cc2ccc3c(c2)CCN(C)C3)cc1)c1ccccc1Cl` (stereo not drawn) [H1344, 1-(1-(2-chlorophenyl)ethyl)-3-(4-(((2-methyl-1,2,3,4-tetrahydroisoquinolin-6-yl)methyl)sulfonyl)phenyl)urea], the “Metabolic Stability Study M = mouse” value in data set [1] was 115.7 µL/min/mg. The EC50 in data set [2] is 4.1 nM; in data set [5] it was greater than 30000 nM. For the same compound, the “Metabolic Stability Study H = human” value in data set [3] amounted to 53.5 µL/min/mg. The IC50 in data set [4] was determined as 4.4 nM.
As to `CC(NC(=O)Nc1ccc(S(=O)(=O)Cc2ccc3c(c2)CCN(C)C3)cc1)c1cccc(F)c1F` (stereo not drawn) [H1345, 1-(1-(2,3-difluorophenyl)ethyl)-3-(4-(((2-methyl-1,2,3,4-tetrahydroisoquinolin-6-yl)methyl)sulfonyl)phenyl)urea], in data set [1], the “Metabolic Stability Study M = mouse” value stood at 166.2 µL/min/mg. In addition, the EC50 is 4.2 nM in data set [2] and greater than 30000 nM in data set [5]. The “Metabolic Stability Study H = human” value in data set [3] was 86.5 µL/min/mg. Also, the half-inhibitory concentration (IC50) in data set [4] stood at 5.2 nM.
